For assay [1], the system named is Plasmodium yoelii. Put plainly: Antimalarial activity against Plasmodium yoelii BY265RFP infected in Kunming mouse assessed as inhibition of parasitemia at 30 mg/kg/day, ig administered for 4 days starting from 3 hrs post infection and measured at 4 days post infection by Wright-Giemsa staining based microscopic assay relative to control. Format: functional. Particulars: po.

The test system of assay [2] is Mus musculus. Put plainly: Immunomodulatory activity in Kunming mouse infected with Plasmodium yoelii BY265RFP assessed as increase in IL-12 at 30 mg/kg/day, ig administered for 4 days starting from 3 hrs post infection and measured at 4 days post infection by FACSCalibur flow cytometry. Format: functional, organism-based.
Assay [3] deals with Mus musculus. Put plainly: Immunomodulatory activity in Kunming mouse infected with Plasmodium yoelii BY265RFP assessed as proportion of splenic CD4+CD25+ Tregs within CD4+ cells at 15 mg/kg/day, ig administered for 4 days starting from 3 hrs post infection and measured at 4 days post infection by FACSCalibur flow cytometry (reference value: 11.2 +/- 0.5%). Format: functional. (A flow cytometer gives signals particle by particle.)

Assay [4] relates to Plasmodium yoelii. Put plainly: Disruption of mitochondrial membrane potential in Plasmodium yoelii BY265RFP infected in mouse erythrocytes assessed as red/green fluorescence ratio at 3 uM incubated for 12 hrs by JC1 staining based laser-scanning confocal microscopic analysis (reference value: 1.55 +/- 0.08). Format: functional.
For assay [5], the system named is Mus musculus. Put plainly: Immunomodulatory activity in Kunming mouse infected with Plasmodium yoelii BY265RFP assessed as proportion of splenic CD4+CD25+ Tregs within CD4+ cells at 30 mg/kg/day, ig administered for 4 days starting from 3 hrs post infection and measured at 4 days post infection by FACSCalibur flow cytometry (reference value: 11.2 +/- 0.5%). Format: functional.

Assay [6] deals with Plasmodium yoelii. As to the kind of experiment: Induction of intracellular ROS production in Plasmodium yoelii BY265RFP infected in mouse erythrocytes at 0.03 to 3 uM after 12 hrs by DCFH-DA staining based laser-scanning confocal microscopic analysis. It is filed as functional, organism-based.
Assay [7] concerns Plasmodium yoelii. Put plainly: Disruption of mitochondrial membrane potential in Plasmodium yoelii BY265RFP infected in mouse erythrocytes assessed as red/green fluorescence ratio at 0.03 uM incubated for 12 hrs by JC1 staining based laser-scanning confocal microscopic analysis (reference value: 1.55 +/- 0.08). It is filed as functional.
The subject of assay [8] is Plasmodium yoelii. As to the kind of experiment: Antimalarial activity against Plasmodium yoelii BY265RFP infected in Kunming mouse assessed as inhibition of parasitemia at 15 mg/kg/day, ig administered for 4 days starting from 3 hrs post infection and measured at 4 days post infection by Wright-Giemsa staining based microscopic assay relative to control. Particulars: po. Format: functional.

For assay [9], the system named is Mus musculus. Put plainly: Immunomodulatory activity in Kunming mouse infected with Plasmodium yoelii BY265RFP assessed as proportion of splenic CD4+CD25+ Tregs within CD4+ cells at 10 mg/kg/day, ig administered for 4 days starting from 3 hrs post infection and measured at 4 days post infection by FACSCalibur flow cytometry (reference value: 11.2 +/- 0.5%). It is filed as functional.

Assay [10] deals with Plasmodium yoelii. Put plainly: Antimicrobial activity against Plasmodium yoelii BY265RFP infected in Kunming mouse assessed as recovery of abdominal temperature at 15 to 30 mg/kg/day, ig administered for 4 days starting from 3 hrs post infection and measured at 5 days post infection. Format: functional, organism-based.
In assay [11] the test system is Plasmodium yoelii. Put plainly: Antimicrobial activity against Plasmodium yoelii BY265RFP infected in Kunming mouse assessed as relief from hepatomegaly at 15 to 30 mg/kg/day, ig administered for 4 days starting from 3 hrs post infection and measured at 4 days post infection. It is filed as functional, organism-based.
The subject of assay [12] is Mus musculus. Put plainly: Immunomodulatory activity in Kunming mouse infected with Plasmodium yoelii BY265RFP assessed as decrease in IL-10 at 30 mg/kg/day, ig administered for 4 days starting from 3 hrs post infection and measured at 4 days post infection by FACSCalibur flow cytometry. It is filed as functional, organism-based.
Assay [13] concerns Mus musculus. As to the kind of experiment: Immunomodulatory activity in Kunming mouse infected with Plasmodium yoelii BY265RFP assessed as increase in IFN-gamma at 30 mg/kg/day, ig administered for 4 days starting from 3 hrs post infection and measured at 4 days post infection by FACSCalibur flow cytometry. It is filed as functional, organism-based.
The subject of assay [14] is Plasmodium yoelii. As to the kind of experiment: Antimicrobial activity against Plasmodium yoelii BY265RFP infected in Kunming mouse assessed as recovery of erythrocyte at 15 to 30 mg/kg/day, ig administered for 4 days starting from 3 hrs post infection and measured at 4 days post infection. It is filed as functional, organism-based.
Assay [15] deals with Plasmodium yoelii. As to the kind of experiment: Antimicrobial activity against Plasmodium yoelii BY265RFP infected in Kunming mouse assessed as increase in hemoglobin level at 15 to 30 mg/kg/day, ig administered for 4 days starting from 3 hrs post infection and measured at 5 days post infection. Format: functional, organism-based.
In assay [16] the test system is Mus musculus. Put plainly: Immunomodulatory activity in Kunming mouse infected with Plasmodium yoelii BY265RFP assessed as decrease in IgG at 30 mg/kg/day, ig administered for 4 days starting from 3 hrs post infection and measured at 4 days post infection by FACSCalibur flow cytometry. Format: functional, organism-based.
Assay [17] concerns Plasmodium yoelii. As to the kind of experiment: Disruption of mitochondrial membrane potential in Plasmodium yoelii BY265RFP infected in mouse erythrocytes assessed as red/green fluorescence ratio at 0.3 uM incubated for 12 hrs by JC1 staining based laser-scanning confocal microscopic analysis (reference value: 1.55 +/- 0.08). It is filed as functional.
The next assay has as its system Hemozoin. As to the kind of experiment: Inhibition of beta-hematin formation incubated for 5 hrs.
The subject of assay [18] is Plasmodium yoelii. Put plainly: Antimalarial activity against Plasmodium yoelii BY265RFP infected in Kunming mouse assessed as inhibition of parasitemia at 50 mg/kg/day, ig administered for 4 days starting from 3 hrs post infection and measured at 4 days post infection by Wright-Giemsa staining based microscopic assay relative to control. Particulars: po. Format: functional.

In assay [19] the test system is Plasmodium yoelii. Put plainly: Antimalarial activity against Plasmodium yoelii BY265RFP infected in Kunming mouse assessed as inhibition of parasitemia at 10 mg/kg/day, ig administered for 4 days starting from 3 hrs post infection and measured at 4 days post infection by Wright-Giemsa staining based microscopic assay relative to control. Particulars: po. Format: functional.

Calls of active or inactive are those of the source. No cut-off for these calls is given here.

As usually defined, the inhibition in vivo is the relative decrease from the control value, in per cent. For the compound `C/C=C(/C)C(=O)O[C@H]1CC[C@]2(C)C[C@]3(O)OC(=O)C(C)=C3C[C@H]2[C@]1(C)OC(C)=O`, the inhibition in vivo at 30 mg/kg/day in the assay with Plasmodium yoelii [1] was 14.5%.
With `C/C=C(/C)C(=O)O[C@H]1CC[C@]2(C)C[C@@H](C(C)=O)C[C@H]2[C@]1(C)OC(C)=O`, the result with Mus musculus [2], in the assay with Plasmodium yoelii [6], in the assay on Plasmodium yoelii [10], in the assay with Plasmodium yoelii [11], with Mus musculus [12] and in the assay with Mus musculus [13] was Active. The result with Plasmodium yoelii [14], with Plasmodium yoelii [15] and in the assay with Mus musculus [16] was Active. In the assay on Plasmodium yoelii [1], the inhibition in vivo at 30 mg/kg/day turned out to be 59.1%. Further, the Activity in the assay with Mus musculus [3] is 8.6%; in the assay on Mus musculus [5] it was 7.6%; with Mus musculus [9] it was 6.7%. Further, the Ratio in the assay with Plasmodium yoelii [4] is given as 1.22; in the assay on Plasmodium yoelii [7], 1.51; in the assay on Plasmodium yoelii [17] it was 1.35. The inhibition in vivo at 15 mg/kg/day in the assay on Plasmodium yoelii [8] was 33.8%. Besides, in the assay with Hemozoin, the inhibition entry was “inactive”.
Take `C[C@@H]1CC[C@H]2[C@@H](C)C(=O)O[C@@H]3O[C@@]4(C)CC[C@@H]1[C@]32OO4` [ARTEMISININ]: the figures for the Ratio with Plasmodium yoelii [4], with Plasmodium yoelii [7] and in the assay with Plasmodium yoelii [17] were 1.18, 1.43 and 1.33, respectively. Further, the inhibition in vivo at 50 mg/kg/day in the assay on Plasmodium yoelii [18] amounted to 54.4%.
As for `C/C=C(/C)C(=O)O[C@H]1CC[C@]2(C)CC(=O)[C@@H](C(C)C(=O)O)C[C@H]2[C@]1(C)O` (stereo partly drawn), in the assay on Plasmodium yoelii [1], the inhibition in vivo at 30 mg/kg/day worked out at 3.9%.
With `CCN(CC)CCCC(C)Nc1ccnc2cc(Cl)ccc12` (stereo not drawn) [CHLOROQUINE PHOSPHATE], the inhibition in vivo at 10 mg/kg/day with Plasmodium yoelii [19] was found to be 97.9%.
Turning to `C/C=C(/C)C(=O)O[C@H]1CC[C@]2(C)CC(=O)C[C@H]2[C@]1(C)OC(C)=O`, in the assay on Plasmodium yoelii [1], the inhibition in vivo at 30 mg/kg/day came out at 18.5%.
Same read-out and setting: the result for `C/C=C(/C)C(=O)O[C@H]1CC[C@]2(C)C[C@@H]3OC(=O)C(C)=C3C[C@H]2[C@]1(C)OC(C)=O` reads 15%; that for `C/C=C(/C)C(=O)O[C@H]1CC[C@]2(C)C[C@]3(O)OC(=O)C(C)=C3C[C@H]2[C@]1(C)O`, -1.9%.
